Columns and labels:
[1] = test system: Fusarium graminearumt; assay: microbe, parasite or virus in culture; assay type: cell-based; conditions: for inhibition of growth at 50 mg/kg: Fusarium, 96 h, read-out: Bactericidal activity (%) Fusarium graminearumt
[2] = test system: tobacco mosaic virus (TMV); assay: Anti-TMV in vitro effect (half-leaf soaking); assay type: cell-based, tobacco mosaic virus (host Nicotiana tabacum L.cv.Xanthi NN); conditions: for inhibition at 100 µg/mL / inhibition at 500 µg/mL: Tobacco mosaic virus, read-out: Relative inhibition rate (%) In vitro activity
[3] = test system: Bipolaria maydis; assay: organism not typed; assay type: cell-based; conditions: for inhibition at 50 mg/kg: read-out: Bactericidal activity (%) Bipolaria maydis
[4] = test system: armyworms, cotton bollworms and corn borers; assay: Insecticidal activity, overall statements on Table 3; assay type: in vivo; conditions: Table 3, 600 mg/kg
[5] = test system: Sclerotinia scleotiorum; assay: Fungicidal (bactericidal) activity in vitro, PDA colony diameter; assay type: cell-based; conditions: 50 mg/kg; for inhibition of growth at 50 mg/kg: Sclerotinia, 96 h
[6] = test system: Rhizoctonia solani; assay: as above; assay type: cell-based; conditions: 50 mg/kg; for inhibition of growth at 50 mg/kg: Rhizoctonia solani, 96 h
[7] = test system: Alternaria solani; assay: as above; assay type: cell-based; conditions: 50 mg/kg; for inhibition of growth at 50 mg/kg: Alternaria solani, 96 h
[8] = test system: potato late blight; assay: microbe, parasite or virus in culture; assay type: cell-based; conditions: for inhibition of growth at 50 mg/kg: Phytophthora infestans, 96 h, read-out: Bactericidal activity (%) potato late blight
[9] = test system: Rhizoctonia cereali; assay: Fungicidal (bactericidal) activity in vitro, PDA colony diameter; assay type: cell-based; conditions: 50 mg/kg; for inhibition of growth at 50 mg/kg: Rhizoctonia, 96 h
[10] = test system: cucumber fusarium wilt; assay: as above; assay type: cell-based; conditions: 50 mg/kg; for inhibition of growth at 50 mg/kg: Fusarium, 96 h
[11] = test system: tobacco mosaic virus (TMV); assay: Anti-TMV in vivo protective effect; design: species or system tobacco mosaic virus (host Nicotiana tabacum L.cv.Xanthi NN); conditions: for inhibition at 100 µg/mL / inhibition at 500 µg/mL: Tobacco mosaic virus, read-out: Relative inhibition rate (%) In vivo protection
[12] = test system: mosquito larvae; assay: whole plant or invertebrate; conditions: for mortality at 5 mg/kg / mortality at 10 mg/kg: Culex pipiens, read-out: Mosquito larvae Mortality (%); for mortality at 5 mg/kg / mortality at 10 mg/kg / Mosquito larvae Mortality (%): 24 h; for activity against culex pipiens larvae (in words): at 5 mg/kg
Outline: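 Early fourth-instar Culex pipiens pallens larvae from an indoor colony, 10 per beaker, exposed to test compound at 5 ppm in water, diluted from a 1000 ppm acetone mother solution. Blank: water containing 0.5 mL test solvent.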

[13] = test system: Cercospora arachidicola; assay: Fungicidal (bactericidal) activity in vitro, PDA colony diameter; assay type: cell-based; conditions: 50 mg/kg; for inhibition of growth at 50 mg/kg: Mycosphaerella arachidis, 96 h
[14] = test system: Macrophoma kawatsukai; assay: as above; assay type: cell-based; conditions: 50 mg/kg
[15] = test system: armyworms; assay type: in vivo; conditions: concentration 600 mg/kg
[16] = test system: Botrytis cinerea; assay: Fungicidal (bactericidal) activity in vitro, PDA colony diameter; assay type: cell-based; conditions: 50 mg/kg; for inhibition of growth at 50 mg/kg: Botrytis cinerea, 96 h
[17] = test system: corn borers; assay: whole plant or invertebrate; conditions: read-out: Corn borer Mortality (%)
[18] = test system: tobacco mosaic virus (TMV); assay: Anti-TMV in vivo therapeutic effect; design: species or system tobacco mosaic virus (host Nicotiana tabacum L.cv.Xanthi NN); conditions: for inhibition at 100 µg/mL / inhibition at 500 µg/mL: Tobacco mosaic virus, read-out: Relative inhibition rate (%) In vivo therapy
[19] = test system: cotton bollworms; assay: whole plant or invertebrate; conditions: for mortality at 600 mg/kg: Helicoverpa armigera, in Gossypium hirsutum, read-out: Cotton bollworm Mortality (%)
Description: Experimental method of cotton bollworms: feed and drug mixing method: measure 3 mL of prepared solution and add it to about 27 g of newly prepared feed, thereby obtaining needed concentration through dilution by 10 times.

[20] = test system: Phytophthora capsici; assay: Fungicidal (bactericidal) activity in vitro, PDA colony diameter; assay type: cell-based; conditions: 50 mg/kg; for inhibition of growth at 50 mg/kg: Phytophthora capsici, 96 h
[21] = test system: tobacco mosaic virus (TMV); assay: Anti-TMV in vivo inactivation; design: species or system tobacco mosaic virus (host Nicotiana tabacum L.cv.Xanthi NN); conditions: for inhibition at 100 µg/mL / inhibition at 500 µg/mL: Tobacco mosaic virus, read-out: Relative inhibition rate (%) In vivo inactivation
[22] = test system: Colletotrichum orbiculare; assay: Fungicidal (bactericidal) activity in vitro, PDA colony diameter; assay type: cell-based; conditions: 50 mg/kg; for inhibition of growth at 50 mg/kg: Colletotrichum orbiculare, 96 h
[23] = test system: Fusarium fujikuroi; assay: as above; assay type: cell-based; conditions: for inhibition of growth at 50 mg/kg: Fusarium fujikuroi, 96 h
[24] = test system: corn borers; conditions: concentration 600 mg/kg

CCCCNC(=O)[C@@H]1Cc2c([nH]c3ccccc23)[C@H](C)N1 [Ib-16, (1S, 3S)—N-butyl-1-methyl-2,3,4,9-tetrahydro-pyridino [3,4-b] indol-3-formamide]
inhibition of growth at 50 mg/kg [1]: 14.3% | inhibition at 100 µg/mL ([2]; treatment dose 100 μg/mL): 0% | inhibition at 500 µg/mL ([2]; treatment dose 500 μg/mL): 38.4% | inhibition at 50 mg/kg [3]: 18.2% | activity against armyworms, cotton bollworms and corn borers (in words) [4]: broad-spectrum activity | inhibition of growth at 50 mg/kg [5]: 0% | inhibition of growth at 50 mg/kg [6]: 46.1% | inhibition of growth at 50 mg/kg [7]: 21.1% | inhibition of growth at 50 mg/kg [8]: 22.7% | inhibition of growth at 50 mg/kg [9]: 57.9% | inhibition of growth at 50 mg/kg [10]: 23.1% | inhibition at 100 µg/mL ([11]; treatment dose 100 μg/mL): 15.8% | inhibition at 500 µg/mL ([11]; treatment dose 500 μg/mL): 42.1% | mortality at 5 mg/kg [12]: 60% | mortality at 10 mg/kg [12]: 100% | activity against culex pipiens larvae (in words) [12]: still show high activity | inhibition of growth at 50 mg/kg [13]: 84.6% | inhibition at 50 mg/kg [14]: 33.3% | Armyworm Mortality (%) [15]: 65% | inhibition of growth at 50 mg/kg [16]: 18.2% | mortality at 600 mg/kg [17]: 50% | inhibition at 100 µg/mL ([18]; treatment dose 100 μg/mL): 21.1% | inhibition at 500 µg/mL ([18]; treatment dose 500 μg/mL): 44.9% | mortality at 600 mg/kg [19]: 50% | inhibition of growth at 50 mg/kg [20]: 18.8% | inhibition at 100 µg/mL ([21]; treatment dose 100 μg/mL): 13.5% | inhibition at 500 µg/mL ([21]; treatment dose 500 μg/mL): 44% | inhibition of growth at 50 mg/kg [22]: 28.6% | inhibition of growth at 50 mg/kg [23]: 14.3%

C[C@@H]1N[C@H](C(=O)N/N=C/c2ccccc2)Cc2c1[nH]c1ccccc21 [Ic-1, (1S, 3S)—N′-benzylidene-1-methyl-2,3,4,9-tetrahydropyridino [3,4-b] indol-3-formylhydrazine]
inhibition of growth at 50 mg/kg [1]: 53.8% | inhibition at 100 µg/mL ([2]; treatment dose 100 μg/mL): 28.4% | inhibition at 500 µg/mL ([2]; treatment dose 500 μg/mL): 55.8% | inhibition at 50 mg/kg [3]: 60% | activity against armyworms, cotton bollworms and corn borers (in words) [4]: broad-spectrum activity | inhibition of growth at 50 mg/kg [5]: 26.9% | inhibition of growth at 50 mg/kg [6]: 48.6% | inhibition of growth at 50 mg/kg [7]: 57.1% | inhibition of growth at 50 mg/kg [8]: 30.4% | inhibition of growth at 50 mg/kg [9]: 86.5% | inhibition of growth at 50 mg/kg [10]: 36.4% | inhibition at 100 µg/mL ([11]; treatment dose 100 μg/mL): 21.8% | inhibition at 500 µg/mL ([11]; treatment dose 500 μg/mL): 53.2% | mortality at 5 mg/kg [12]: 80% | mortality at 10 mg/kg [12]: 100% | activity against culex pipiens larvae (in words) [12]: still show high activity | inhibition of growth at 50 mg/kg [13]: 72.7% | inhibition at 50 mg/kg [14]: 36.4% | Armyworm Mortality (%) [15]: 75% | inhibition of growth at 50 mg/kg [16]: 88.9% | mortality at 600 mg/kg [17]: 60% | inhibition at 100 µg/mL ([18]; treatment dose 100 μg/mL): 16% | inhibition at 500 µg/mL ([18]; treatment dose 500 μg/mL): 51.5% | mortality at 600 mg/kg [19]: 55% | inhibition of growth at 50 mg/kg [20]: 69.7% | inhibition at 100 µg/mL ([21]; treatment dose 100 μg/mL): 19.6% | inhibition at 500 µg/mL ([21]; treatment dose 500 μg/mL): 56.3% | inhibition of growth at 50 mg/kg [22]: 52% | inhibition of growth at 50 mg/kg [23]: 58.8%

COc1ccc(C=NNC(=O)[C@@H]2Cc3c([nH]c4ccccc34)[C@H](C)N2)cc1OC [Ic-11, (1S, 3S)—N′-(3,4-dimethoxybenzylidene)-1-methyl-2,3,4,9-tetrahydropyridino [3,4-b] indol-3-formylhydrazine]
Bactericidal activity (%) Fusarium graminearumt ([1]; 50 mg/kg): 30.8% | Relative inhibition rate (%) In vitro activity ([2]; treatment dose 100 μg/mL): 7.8% | Relative inhibition rate (%) In vitro activity ([2]; treatment dose 500 μg/mL): 37.2% | Bactericidal activity (%) Bipolaria maydis ([3]; 50 mg/kg): 52.0% | activity against armyworms, cotton bollworms and corn borers (in words) [4]: broad-spectrum activity | Bactericidal activity (%) Sclerotinia scleotiorum [5]: 21.2% | Bactericidal activity (%) Rhizoctonia solani [6]: 44.4% | Bactericidal activity (%) Alternaria solani [7]: 52.4% | Bactericidal activity (%) potato late blight [8]: 30.4% | Bactericidal activity (%) Rhizoctonia cereali [9]: 89.2% | Bactericidal activity (%) Cucumber fusarium wilt [10]: 22.7% | Relative inhibition rate (%) In vivo protection ([11]; treatment dose 100 μg/mL): 11% | Relative inhibition rate (%) In vivo protection ([11]; treatment dose 500 μg/mL): 42.3% | Mosquito larvae Mortality (%) ([12]; concentration 5 mg/kg): 40% | Mosquito larvae Mortality (%) ([12]; concentration 10 mg/kg): 100% | Bactericidal activity (%) Cercospora arachidicola [13]: 45.5% | Bactericidal activity (%) Macrophoma kawatsukai [14]: 66.7% | Armyworm Mortality (%) [15]: 65% | Bactericidal activity (%) Botrytis cinerea [16]: 66.7% | Relative inhibition rate (%) In vivo therapy ([18]; treatment dose 100 μg/mL): 16.2% | Relative inhibition rate (%) In vivo therapy ([18]; treatment dose 500 μg/mL): 40.5% | Cotton bollworm Mortality (%) ([19]; concentration 600 mg/kg): 40% | Corn borer Mortality (%) [24]: 55% | Bactericidal activity (%) Phytophthora capsici [20]: 84.8% | Relative inhibition rate (%) In vivo inactivation ([21]; treatment dose 100 μg/mL): 20.3% | Relative inhibition rate (%) In vivo inactivation ([21]; treatment dose 500 μg/mL): 47.1% | Bactericidal activity (%) Colletotrichum orbiculare [22]: 72.0% | Bactericidal activity (%) Fusarium fujikuroi [23]: 47.1%
